Experimental data reported in publication PMC9309159, “Identification of heptapeptides targeting a lethal bacterial strain in septic mice through an integrative approach” (Signal Transduction and Targeted Therapy, 2022).
“Also recorded” adds a separate entry of the source.

Legend:
[1] = test system: bacterial strain MSI001; assay: In vitro antibacterial assay (colony counting); format: cell-based, Escherichia coli; settings: 1 × 10^3 CFU, peptide 0.25, 0.5, 1 μmol/L, 37 °C, 1-8 h, colony count, n = 3
Method: Fig. 6 Antimicrobial activity of the C7C-LL37 fusion peptides in vitro. a Primary structures and physical properties of the C7C and LL37 fusion peptides, including LL37, VTK-LL37, LL37-VTK, KYY-LL37 and LL37-KYY, ISS-LL37, INS-LL37. Net charge, PI and GRAVY values were acquired as described above. b Inhibitory effect of C7C-LL37 fusion peptides on bacterial growth. A C7C-LL37 fusion peptide or LL37 alone was added to the cultured bacterial strain MSI001 (1 × 10^3 CFU) at final concentrations of 0.25 μmol/L, 0.5 μmol/L and 1 μmol/L. Sterile DPBS was used as control. After incubation with the C7C-LL37 or LL37 peptides at 37 °C for different times (1-8 h), bacterial colonies were counted. n = 3. *P < 0.05, VTK-LL37 group compared to LL37 group; ^#P < 0.05, LL37-VTK group compared to LL37 group. c, d Inhibitory effect of VTK-LL37 on biofilm formation. The VTK-LL37 or LL37 peptide was added to the bacterial culture at a final concentration of 0-4 μmol/L and incubated at 37 °C for 3 days. Bacterial culture medium and the peptides were refreshed every day. The biofilm was stained with 1% crystal violet, and the precipitates were dissolved in 95% ethanol, followed by detection of absorbance at 570 nm (A570) (c). Moreover, the biofilm was observed under a microscope (d). n = 5. *P < 0.05, VTK-LL37 group compared to LL37 group […]

[2] = test system: E. coli MSI001; assay: Survival of mice subjected to septic modeling with MSI001; format: in vivo, C57BL/6 mice; settings: MSI001 6 × 10^6 CFU/g i.p.; peptide 0.2 nmol/g i.v. 1 h later; observed up to 168 h; Kaplan-Meier; n = 20
Excerpt: (§1) Wild-type C57 mice were intraperitoneally injected with MSI001 bacteria (6 × 10^6 CFU/g body weight) to reproduce a sepsis model. […] Normal saline (NS) was used as control. […] One hour after CLP modeling, the mice were intravenously injected with LL37 or VTK-LL37 peptide at a dosage of 0.2 nmol/g body weight. Equal volume of normal saline (NS) was used as control. […] The mice were intraperitoneally injected with MSI001 bacteria. One hour later, the mice were subjected to tail vein injection (TVI) with VTK-LL37 (VTK-LL37 group), LL37 (LL37 group) or an equivalent volume of NS (sepsis group). Wild-type mice without modeling were used as controls (control group). The blood bacteria were quantitated as colony forming units (CFU) 12 h after injection of bacteria. n = 8. *P < 0.05, compared to control; ^#P < 0.05, compared to sepsis group^; ΔP < 0.05, compared to LL37 group. Results are expressed as the median with range. d Suppression of VTK-LL37 on the production of HMGB1 in the blood of septic mice. […] Twelve hours after bacterial injection, HMGB1 in the serum was quantitated by ELISA. n = 8. *P < 0.05, compared to control; ^#P < 0.05, compared to sepsis group; ^ΔP < 0.05, compared to LL37 group^. Results are expressed as the mean ± SD. e, f Protective effect of VTK-LL37 against organ damage in mice subjected to bacterial injection. […]

[3] = test system: E. coli MSI001; assay: In vivo antibacterial assay (blood CFU); set-up: species or system C57BL/6 mice; settings: MSI001 6 × 10^6 CFU/g i.p.; peptide 0.2 nmol/g tail vein 1 h later; blood CFU at 12 h; n = 8
Excerpt: as §1

[4] = test system: liver, kidney, heart and lung; assay: Histopathological evaluation of organ injury in septic mice; format: in vivo, C57BL/6 mice; settings: peptide i.v. 1 h after sepsis modeling; tissues at 12 h; HE staining, injury scores; n = 6
Excerpt: as §1

## CVTKLGSLCVPGVGLLGDFFRKSKEKIGKEFKRIVQRIKDFLRNLVPRTES [VTK-LL37]
[1]
  inhibitory effect on bacterial growth of MSI001: inhibited MSI001 bacterial growth but also showed stronger antibiotic activity than LL37 alone in the early stage (1-3 h); also recorded: stronger bacteriostatic activity than other LL37 fusion peptides
[2]
  survival of septic mice: significantly increased the survival of septic mice
[3]
  suppression of bacterial growth in blood of septic mice: stronger capability to suppress the bacterial growth of E. coli MSI001 in the blood of septic mice than LL37
[4]
  sepsis-induced organ injury: alleviated sepsis-induced injury to multiple organs, including the liver, lung, kidney and heart
